The results in this text go back to PMC4025572 (Biochemistry, 2014).

A word on the pIC50: it is the negative decadic logarithm of the IC50, by convention in mol/L. A higher pIC50 goes with a low IC50.

pIC50: −log10 of the molar value.

For this assay, the target named is human indolethylamine-N-methyltransferase (hINMT) (Homo sapiens, UniProt O95050). Put plainly: radiometric […]SAM methyltransferase assay, pure hINMT. It is filed as biochemical.
human indolethylamine-N-methyltransferase (hINMT), sequence (O95050 whole entry): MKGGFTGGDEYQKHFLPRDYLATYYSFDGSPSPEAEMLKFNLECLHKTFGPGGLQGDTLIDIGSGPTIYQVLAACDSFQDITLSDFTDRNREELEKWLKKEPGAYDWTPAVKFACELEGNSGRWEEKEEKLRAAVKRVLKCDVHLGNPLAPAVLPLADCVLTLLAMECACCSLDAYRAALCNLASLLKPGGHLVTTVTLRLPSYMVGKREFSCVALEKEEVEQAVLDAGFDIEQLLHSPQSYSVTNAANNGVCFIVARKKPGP

In turn, `CN(C)CCCNCCc1c[nH]c2ccccc12` [PDAT, N-[2-(1H-indol-3-yl)ethyl]-N′,N′-dimethylpropane-1,3-diamine] had a pIC50 of around 3.00.
